Measured values taken from patent US7763617B2, “Pyrazolopyridine-4-yl pyridazinone derivatives and addition salts thereof, and PDE inhibitors comprising the same derivatives or salts as active ingredient” (Kyorin Pharmaceutical Co., Ltd., priority 2005, dated 2010).

Experiments:
[1] = target: T1, PDE3A catalytic domain (PDE3Acat) (Homo sapiens, UniProt Q14432); experiment: Inhibition of phosphodiesterase activity, [3H]-cAMP hydrolysis, recombinant PDE3Acat; format: biochemical; details: human recombinant PDE3Acat, cAMP 2 μmol/L; read-out: IC50(μmol/L) PDE3
T1 construct: cDNA fragments of PDE3A catalytic domain (indicated as “cat,” hereinafter); made in house; host or cells: Sf9 insect cells (baculovirus, Bac-to-Bac)
Protocol: (§1) RT-PCR was performed to isolate cDNA fragments of PDE3A catalytic domain (indicated as “cat,” hereinafter), PDE4Bcat, PDE5Acat and PDE10A1 from human RNA. Using Gateway system (Invitrogen) and Bac-to-Bac (registered trademark) Baculovirus Expression system (Invitrogen), the isolated cDNA fragments were transfected into Sf9 insect cells for expression of the PDE proteins. The recombinant PDE3Acat, PDE4Bcat, PDE5Acat and PDE10A1 proteins were isolated from culture supernatant or cell extracts of Sf9 cells expressed high levels of these proteins by ion-exchange chromatography and used for the following experiments.
(§2) 4 mmol/L solution of each test compound was serially diluted 4-fold with 15% DMSO solution to prepare the solutions with concentrations of 15 nmol/L to 4 mmol/L (final concentrations=1.5 nmol/L-400 μmol/L). 10 μL of each test compound solution was added to each well of 96 plate with 10 μL of [^3H]-cAMP or [^3H]-cGMP solution, diluted with a buffer (40 mmol/L Tris-HCl (pH 7.4), 10 mmol/L MgCl2) to the concentration shown in Table 20 and 40 μL of each of the human recombinant PDE proteins in units shown in Table 20. The plate was incubated at 30° C. for 20 min, and then at 65° C. for 2 min. Subsequently, 25 μL of 1 mg/mL 5′-nucleotidase (Crotalus atrox venom, Sigma) was added to each well and the plate was incubated at 30° C. for 10 min. 200 μL of Dowex solution (300 mg/mL Dowex 1×8-400 (Sigma Aldrich), 33% ethanol) was then added to each well and the plate was shaken at 4° C. for 20 min. Subsequently, 200 μL of MicroScint 20 (Packard) was added to each well and the radioactivity of each sample was measured by a scintillation counter (Topcount, Packard) IC50 was calculated by GraphPad Prism v3.03 (GraphPad Software).

[2] = tested on: histamine-induced bronchoconstriction; experiment: Histamine-induced bronchoconstriction in guinea pigs; format: in vivo, guinea pig; details: Cavia porcellus, iv, 0.5 min, 30 seconds after administration, histamine 12.5 μg/kg i.v.; for inhibition in vivo at 0.1 mg/kg: values in brackets: test compound 0.1 mg/kg, i.v.; for inhibition in vivo at 1 mg/kg: test compound 1 mg/kg i.v.
Protocol: Guinea pigs were anesthetized with pentobarbital (30 mg/kg, i.p.). A cannula for IV administeration, a cannula for collecting blood and measurement of blood pressure and a trachea cannula were inserted into the left exterior jugular vein, right interior carotid artery and trachea, respectively. The animals were placed under artificial respiration at 60 times/min and 10 mL/kg/stroke. The airflow through the branch of the tracheal cannula was measured by a bronchospasm transducer (Ugo-Basile) and recorded on a computer via Power Lab (ADInstruments Japan). The animals were immobilized with gallamine (10 mg/kg, i.v.), then administered histamine at 10-minute intervals (12.5 μg/kg, i.v.). […] To examine the inhibitory activity of test compound, the histamine-induced bronchoconstriction was measured after 30 seconds of drug administration. The bronchoconstriction was recorded as the change of the airflow: The results were shown by percentages of the maximum histamine-induced bronchoconstriction. Each test compound was prepared as a 10 mg/mL solution in DMSO. Gallamine was prepared as a 10 mg/mL solution in physiological saline. Histamine was prepared as a 1 mg/mL solution in physiological saline, which was diluted with physiological saline to 62.5 μg/mL for use.

PDE4Bcat = target: T2, PDE4Bcat (Homo sapiens, UniProt Q07343); experiment: Inhibition of phosphodiesterase activity, [3H]-cAMP hydrolysis, recombinant PDE4Bcat; format: biochemical; details: cAMP 2 μmol/L, read-out: IC50(μmol/L) PDE4
T2 construct: catalytic domain (indicated as “cat,” hereinafter), PDE4Bcat; made in house; host or cells: Sf9 insect cells (baculovirus, Bac-to-Bac)
Protocol: as §1, §2

T1 sequence (Q14432 674-1093 limits assumed): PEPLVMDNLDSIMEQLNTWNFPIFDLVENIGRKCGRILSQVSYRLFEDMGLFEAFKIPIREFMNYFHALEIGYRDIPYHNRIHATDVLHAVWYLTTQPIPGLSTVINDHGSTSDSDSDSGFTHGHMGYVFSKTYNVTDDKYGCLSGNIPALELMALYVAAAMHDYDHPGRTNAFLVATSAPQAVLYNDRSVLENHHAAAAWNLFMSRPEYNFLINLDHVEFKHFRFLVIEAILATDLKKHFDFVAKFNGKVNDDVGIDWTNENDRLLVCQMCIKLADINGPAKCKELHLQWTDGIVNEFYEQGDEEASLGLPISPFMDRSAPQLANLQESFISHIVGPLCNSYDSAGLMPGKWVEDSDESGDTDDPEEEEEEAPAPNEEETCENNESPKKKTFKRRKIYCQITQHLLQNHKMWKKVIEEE
T2 sequence (Q07343 330-659 limits assumed): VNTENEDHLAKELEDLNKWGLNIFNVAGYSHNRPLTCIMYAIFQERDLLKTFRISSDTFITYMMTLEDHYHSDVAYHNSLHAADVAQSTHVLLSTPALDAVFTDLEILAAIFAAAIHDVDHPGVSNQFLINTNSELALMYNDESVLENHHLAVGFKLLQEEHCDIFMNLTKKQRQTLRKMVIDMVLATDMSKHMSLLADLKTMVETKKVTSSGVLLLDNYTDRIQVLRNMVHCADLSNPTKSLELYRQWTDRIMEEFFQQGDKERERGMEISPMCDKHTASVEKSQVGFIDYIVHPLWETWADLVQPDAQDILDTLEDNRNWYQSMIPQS

COc1ccc(C2=NNC(=O)CC2C)c2cc(C(C)=O)nn12 (stereo not shown) [Example 241, 6-(2-acetyl-7-methoxy-pyrazolo[1,5-a]pyridine-4-yl)-4,5-dihydro-5-methyl-3-(2H)-pyridazinone]
IC50 [1]: 1 to 10 µmol/L
inhibition in vivo at 0.1 mg/kg [2]: ≥ 90%
IC50 (PDE4Bcat): < 1 µmol/L

COc1ccc(C2=NNC(=O)CC2C)c2cc(C3CC3)nn12 (stereo not shown) [Example 218]
IC50 [1]: 1 to 10 µmol/L
inhibition in vivo at 0.1 mg/kg [2]: ≥ 90%
IC50 (PDE4Bcat): 0.1 to 1 µmol/L

COCc1cc2c(C3=NNC(=O)CC3C)ccc(OC)n2n1 (stereo not shown) [Example 220]
IC50 [1]: 1 to 10 µmol/L
inhibition in vivo at 0.1 mg/kg [2]: ≥ 90%
IC50 (PDE4Bcat): 0.1 to 1 µmol/L

CCc1nn2c([S+](C)[O-])ccc(C3=NNC(=O)CC3C)c2c1O (stereo not shown) [Example 250]
IC50 [1]: 1 to 10 µmol/L
inhibition in vivo at 0.1 mg/kg [2]: ≥ 90%
IC50 (PDE4Bcat): 0.1 to 1 µmol/L

CCc1nn2c(OC)ccc(C3=NNC(=O)CC3C)c2c1Cl (stereo not shown) [Example 213]
IC50 [1]: > 10 µmol/L
inhibition in vivo at 1 mg/kg [2]: 70 to 80%
IC50 (PDE4Bcat): 0.1 to 1 µmol/L

COc1ccc(C2=NNC(=O)CC2C)c2cc(C)nn12 (stereo not shown) [Example 215]
IC50 [1]: 1 to 10 µmol/L
inhibition in vivo at 0.1 mg/kg [2]: 80 to 90%
IC50 (PDE4Bcat): 0.1 to 1 µmol/L

CCCc1cc2c(C3=NNC(=O)CC3C)ccc(OC)n2n1 (stereo not shown) [Example 217]
IC50 [1]: 1 to 10 µmol/L
inhibition in vivo at 0.1 mg/kg [2]: ≥ 90%
IC50 (PDE4Bcat): 0.1 to 1 µmol/L

COc1ccc(C2=NNC(=O)CC2C)c2cc(C(C)F)nn12 (stereo not shown) [Example 240, 6-[2-(1-fluoroethyl)-7-methoxy-pyrazolo[1,5-a]pyridine-4-yl]-4,5-dihydro-5-methyl-3-(2H)-pyridazinone]
IC50 [1]: 1 to 10 µmol/L
inhibition in vivo at 0.1 mg/kg [2]: ≥ 90%
IC50 (PDE4Bcat): < 1 µmol/L

CCc1cc2c(C3=NNC(=O)CC3C)ccc(SC)n2n1 (stereo not shown) [Example 223]
IC50 [1]: 1 to 10 µmol/L
inhibition in vivo at 0.1 mg/kg [2]: ≥ 90%
IC50 (PDE4Bcat): 0.1 to 1 µmol/L

COc1ccc(C2=NNC(=O)CC2)c2cc(C(F)(F)F)nn12 [Example 209, 6-(7-methoxy-2-trifluoromethyl-pyrazolo[1,5-a]pyridine-4-yl)-4,5-dihydro-3-(2H)-pyridazinone]
IC50 [1]: > 10 µmol/L
inhibition in vivo at 0.1 mg/kg [2]: 80 to 90%
IC50 (PDE4Bcat): 0.1 to 1 µmol/L

COc1ccc(C2=NNC(=O)CC2C)c2ccnn12 (stereo not shown) [Example 214]
IC50 [1]: < 1 µmol/L
inhibition in vivo at 0.1 mg/kg [2]: 80 to 90%
IC50 (PDE4Bcat): 1 to 10 µmol/L

COc1ccc(C2=NNC(=O)CC2C)c2cc(C(F)F)nn12 (stereo not shown) [Example 222]
IC50 [1]: 1 to 10 µmol/L
inhibition in vivo at 0.1 mg/kg [2]: 70 to 80%
IC50 (PDE4Bcat): < 1 µmol/L

CCc1cc2c(C3=NNC(=O)CC3C)ccc(C(C)=O)n2n1 (stereo not shown) [Example 235, 6-(7-acetyl-2-ethyl-pyrazolo[1,5-a]pyridine-4-yl)-4,5-dihydro-5-methyl-3-(2H)-pyridazinone]
inhibition in vivo at 0.1 mg/kg [2]: ≥ 90%

CCc1nn2cc(Cl)cc(C3=NNC(=O)CC3C)c2c1Cl (stereo not shown) [Example 203]
IC50 [1]: > 10 µmol/L
inhibition in vivo at 1 mg/kg [2]: 70 to 80%
IC50 (PDE4Bcat): 0.1 to 1 µmol/L

COc1ccc(C2=NNC(=O)CC2C)c2cc(SC)nn12 (stereo not shown) [Example 219]
inhibition in vivo at 0.1 mg/kg [2]: ≥ 90%
IC50 (PDE4Bcat): 0.1 to 1 µmol/L

CCc1cc2c(C3=NNC(=O)CC3C)ccc(OC(C)C)n2n1 (stereo not shown) [Example 245, 6-(7-isopropoxy-2-ethyl-pyrazolo[1,5-a]pyridine-4-yl)-4,5-dihydro-5-methyl-3-(2H)-pyridazinone]
IC50 [1]: 1 to 10 µmol/L
inhibition in vivo at 0.1 mg/kg [2]: ≥ 90%
IC50 (PDE4Bcat): > 10 µmol/L

CCc1cc2c(C3=NNC(=O)CC3C)ccc(NC)n2n1 (stereo not shown) [Example 225]
IC50 [1]: 1 to 10 µmol/L
inhibition in vivo at 0.1 mg/kg [2]: 80 to 90%
IC50 (PDE4Bcat): < 1 µmol/L

COc1ccc(-c2ccc(=O)[nH]n2)c2cc(C(F)(F)F)nn12 [Example 302, 6-(2-trifluoromethyl-7-methoxy-pyrazolo[1,5-a]pyridine-4-yl)-3-(2H)-pyridazinone]
IC50 [1]: 1 to 10 µmol/L
inhibition in vivo at 0.1 mg/kg [2]: ≥ 90%
IC50 (PDE4Bcat): 0.1 to 1 µmol/L

C=Cc1cc2c(C3=NNC(=O)CC3C)ccc(OC)n2n1 (stereo not shown) [Example 239, 6-(7-methoxy-2-vinyl-pyrazolo[1,5-a]pyridine-4-yl)-4,5-dihydro-5-methyl-3-(2H)-pyridazinone]
inhibition in vivo at 0.1 mg/kg [2]: ≥ 90%
